In one assay the target is T1, HDAC-1 (Homo sapiens, UniProt Q13547).
T1 construct: made in house; host or cells: Sf9 or Sf21 insect cells (baculovirus, donor vector pFB-GSTX3)
Nature of the assay: HDAC inhibition assay (purified GST-HDAC protein). Format: biochemical.

Another assay deals with HCT116. Nature of the assay: HCT116 IC50. In kind it is cell-based. To be noted: Homo sapiens, HCT-116.

Structures are written as SMILES.

T1 sequence (Q13547 whole entry, species assumed): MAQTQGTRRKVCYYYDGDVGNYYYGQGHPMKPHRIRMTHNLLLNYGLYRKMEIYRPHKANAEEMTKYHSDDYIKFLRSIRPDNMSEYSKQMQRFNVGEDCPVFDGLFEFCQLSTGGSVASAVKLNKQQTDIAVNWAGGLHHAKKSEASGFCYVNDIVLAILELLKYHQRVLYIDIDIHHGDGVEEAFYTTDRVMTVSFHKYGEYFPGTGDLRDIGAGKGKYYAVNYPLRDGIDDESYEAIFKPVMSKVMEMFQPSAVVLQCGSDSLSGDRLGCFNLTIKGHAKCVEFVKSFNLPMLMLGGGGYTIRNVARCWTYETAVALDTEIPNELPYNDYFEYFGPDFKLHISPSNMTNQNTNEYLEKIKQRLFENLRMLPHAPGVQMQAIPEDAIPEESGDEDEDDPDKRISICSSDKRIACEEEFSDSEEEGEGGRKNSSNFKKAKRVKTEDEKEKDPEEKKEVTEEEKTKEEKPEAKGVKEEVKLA

For the compound `O=C(/C=C/c1ccc([C@@H]2CCCN2CCc2nnnn2-c2ccc([N+](=O)[O-])cc2)cc1)NO` [Compound 107, (E)-N-Hydroxy-3-[4-((S)-1-{2-[1-(4-nitro-phenyl)-1H-tetrazol-5-yl]-ethyl}-pyrrolidin-2-yl)-phenyl]-acrylamide], the values for the IC50 on HDAC-1 and in the assay with HCT116 were 170 nM and 540 nM, respectively.

For `CC(C)(C)c1[nH]nnc1CCN1CCC[C@H]1c1ccc(/C=C/C(=O)NO)cc1` [Compound 108, (E)-3-(4-{(S)-1-[2-(5-tert-Butyl-1H-[1,2,3]triazol-4-yl)-ethyl]-pyrrolidin-2-yl}-phenyl)-N-hydroxy-acrylamide], the results for the IC50 at HDAC-1 and with HCT116 were 7 nM and 10 nM, respectively.

As for `Cc1nn(C)c(C)c1CCN1CCC[C@@H]1c1ccc(/C=C/C(=O)NO)cc1` [Compound 110, (E)-N-Hydroxy-3-(4-{(R)-1-[2-(1,3,5-trimethyl-1H-pyrazol-4-yl)-ethyl]-pyrrolidin-2-yl}-phenyl)-acrylamide], the results for the IC50 on HDAC-1 and in the assay on HCT116 were 100 nM and 180 nM, respectively.

For the compound `Cc1nn(C)c(C)c1CCN1CCC[C@H]1c1ccc(CCC(=O)NO)cc1` [Compound 112, N-Hydroxy-3-(4-{(S)-1-[2-(1,3,5-trimethyl-1H-pyrazol-4-yl)-ethyl]-pyrrolidin-2-yl}-phenyl)-propionamide], the IC50 at HDAC-1 was 10 nM; in the assay with HCT116, 30 nM.

Turning to `CC(C)n1nnnc1CCN1CCC[C@H]1c1ccc(CCC(=O)NO)cc1` [Compound 115, N-Hydroxy-3-(4-{(S)-1-[2-(1-isopropyl-1H-tetrazol-5-yl)-ethyl]-pyrrolidin-2-yl}-phenyl)-propionamide], the values for the 50% inhibitory concentration (IC50) on HDAC-1 and in the assay with HCT116 were 25 nM and 32 nM, respectively.

Turning to `Cc1c(CCN2CCC[C@H]2c2ccc(/C=C/C(=O)NO)cc2)c(=O)n(-c2ccccc2)n1C` [Compound 116, (E)-3-(4-{(S)-1-[2-(1,5-Dimethyl-3-oxo-2-phenyl-2,3-dihydro-1H-pyrazol-4-yl)-ethyl]-pyrrolidin-2-yl}-phenyl)-N-hydroxy-acrylamide], the results for the concentration for half-maximal inhibition (IC50) against HDAC-1 and in the assay on HCT116 were 20 nM and 49 nM, respectively.

Regarding `CC(C)(O)c1nn2ccccc2c1CCN1CCC[C@@H]1c1ccc(CCC(=O)NO)cc1` [Compound 120, N-Hydroxy-3-[4-((R)-1-{2-[2-(1-hydroxy-1-methyl-ethyl)-pyrazolo[1,5-a]pyridin-3-yl]-ethyl}-pyrrolidin-2-yl)-phenyl]-propionamide], the IC50 came out at 75 nM at HDAC-1 and 510 nM in the assay on HCT116.

With `O=C(CCc1ccc([C@H]2CCCN2CCc2cnn3ccccc23)cc1)NO` [Compound 121, N-Hydroxy-3-{4-[(R)-1-(2-pyrazolo[1,5-a]pyridin-3-yl-ethyl)-pyrrolidin-2-yl]-phenyl}-propionamide], the results for the IC50 on HDAC-1 and with HCT116 were 31 nM and 180 nM, respectively.

The values above are taken from patent US8349883B2, “Hydroxamate-based inhibitors of deacetylases B” (Novartis AG, priority 2008, dated 2013).
